According to ChEMBL document CHEMBL5614414, “Discovery of novel arylpyridine derivatives for motile ciliogenesis” (Eur J Med Chem, 2024):
Each block holds one molecule with its values, some of them ahead of it. Active and inactive are the calls of the source. No cut-off for these calls is given here.

Assays:
Danio rerio [1] = species: Danio rerio; assay: Ex vivo activation of Foxj1-mediated motile ciliogenesis pathway in Tg(foxj1a:eGFP)hsc16 zebrafish TL embryo assessed as EGFP expression in spinal ependymal cells at 5 uM incubated for 24 hrs by fluorescent stereomicroscope analysis; type: functional, cell-based
Danio rerio [2] = species: Danio rerio; assay: Ex vivo activation of Foxj1-mediated motile ciliogenesis pathway in Tg(foxj1a:eGFP)hsc16 zebrafish TL embryo assessed as EGFP expression in spinal ependymal cells at 2.5 uM incubated for 24 hrs by fluorescent stereomicroscope analysis; type: functional, cell-based
[3] = Metabolic stability in mouse liver microsomes assessed as compound remaining incubated for 30 mins; type: ADME, Microsome; conditions: read-out: Stability
[4] = Metabolic stability in rat liver microsomes assessed as compound remaining incubated for 30 mins; type: ADME, Microsome; conditions: read-out: Stability
hERG = hERG (Homo sapiens, UniProt Q12809); assay: Inhibition of hERG at 10 uM relative to control; type: toxicity
Sequence of hERG (Q12809 whole entry): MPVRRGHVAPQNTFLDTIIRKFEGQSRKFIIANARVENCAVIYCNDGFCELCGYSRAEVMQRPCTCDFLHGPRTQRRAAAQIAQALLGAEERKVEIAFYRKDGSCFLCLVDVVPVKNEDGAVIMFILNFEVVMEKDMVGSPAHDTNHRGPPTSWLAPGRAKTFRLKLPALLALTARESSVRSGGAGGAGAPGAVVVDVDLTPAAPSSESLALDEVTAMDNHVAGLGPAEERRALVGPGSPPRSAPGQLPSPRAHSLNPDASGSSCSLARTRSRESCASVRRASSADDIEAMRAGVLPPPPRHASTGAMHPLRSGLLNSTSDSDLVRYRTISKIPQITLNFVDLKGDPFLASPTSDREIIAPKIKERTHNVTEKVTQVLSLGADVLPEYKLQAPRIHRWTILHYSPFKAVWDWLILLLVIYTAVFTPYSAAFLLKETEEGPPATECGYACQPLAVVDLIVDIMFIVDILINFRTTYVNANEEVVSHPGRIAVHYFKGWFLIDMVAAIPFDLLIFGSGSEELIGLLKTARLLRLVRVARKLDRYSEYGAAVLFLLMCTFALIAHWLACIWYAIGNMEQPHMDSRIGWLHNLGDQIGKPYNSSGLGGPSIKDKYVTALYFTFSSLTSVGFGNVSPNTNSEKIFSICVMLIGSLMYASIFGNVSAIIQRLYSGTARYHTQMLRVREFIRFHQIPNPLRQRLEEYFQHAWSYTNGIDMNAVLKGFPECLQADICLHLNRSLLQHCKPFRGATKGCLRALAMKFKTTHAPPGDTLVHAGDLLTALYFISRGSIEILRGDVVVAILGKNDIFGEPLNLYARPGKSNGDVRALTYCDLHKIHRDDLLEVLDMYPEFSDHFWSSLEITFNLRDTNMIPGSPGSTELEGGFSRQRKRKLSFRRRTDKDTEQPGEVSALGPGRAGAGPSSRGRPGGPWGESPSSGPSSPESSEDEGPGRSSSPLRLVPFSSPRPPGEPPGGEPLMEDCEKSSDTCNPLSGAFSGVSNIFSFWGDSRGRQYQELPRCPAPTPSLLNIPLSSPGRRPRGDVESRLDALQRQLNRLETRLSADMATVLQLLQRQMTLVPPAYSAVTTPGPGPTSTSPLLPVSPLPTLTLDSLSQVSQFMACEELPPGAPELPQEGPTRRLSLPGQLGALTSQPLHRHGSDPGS

Mus musculus [5] = assay: Restoration of motile cilia in porcine pancreatic elastase-induced COPD C57BL/6 mouse model assessed as decrease in airway damage in trachea at 2 mg/kg, ip administered every other day for 2 weeks and measured 24 hrs post last dose by DAPI staining based confocal microscopic analysis; type: functional, organism-based
Cytochrome P450 2C19 = Cytochrome P450 2C19 (Homo sapiens, UniProt P33261); assay: Inhibition of human CYP2C19 using amitriptyline as substrate relative to control; type: ADME
Sequence of Cytochrome P450 2C19 (P33261 whole entry): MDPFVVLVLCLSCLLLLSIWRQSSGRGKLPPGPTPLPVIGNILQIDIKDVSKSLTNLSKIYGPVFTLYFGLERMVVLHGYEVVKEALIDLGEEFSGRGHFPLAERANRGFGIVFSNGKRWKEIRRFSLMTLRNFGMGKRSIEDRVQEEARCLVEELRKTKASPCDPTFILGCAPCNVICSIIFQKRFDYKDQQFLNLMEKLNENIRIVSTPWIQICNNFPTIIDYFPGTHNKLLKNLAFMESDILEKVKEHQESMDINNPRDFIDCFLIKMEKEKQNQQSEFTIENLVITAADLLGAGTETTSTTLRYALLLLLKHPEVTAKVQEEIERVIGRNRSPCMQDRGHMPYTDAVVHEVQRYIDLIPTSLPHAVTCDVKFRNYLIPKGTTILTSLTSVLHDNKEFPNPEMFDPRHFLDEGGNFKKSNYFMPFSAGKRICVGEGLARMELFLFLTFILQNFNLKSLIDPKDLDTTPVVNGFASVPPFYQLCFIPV

[6] = Cytotoxicity against mouse NIH3T3 cells; type: toxicity, cell-based
mTEC = assay: Ex vivo activation of Foxj1-mediated motile ciliogenesis pathway in wild type C57BL/6 mTEC (mouse tracheal epithelial cells) assessed as increase in multiciliated cells at 5 uM administered for 4 days starting from airlift interface day 0 with replacement of fresh media for every two days by DAPI staining based confocal laser microscopic analysis; type: functional, cell-based; conditions: time 4.0 day
[7] = Half life in male mouse at 1 mg/kg, iv; type: ADME, organism-based; conditions: in vivo
[8] = Tmax in male mouse at 5 mg/kg, po; type: ADME, organism-based; conditions: in vivo
[9] = Oral bioavailability in male mouse at 5 mg/kg; type: ADME, organism-based; conditions: in vivo
Cytochrome P450 3A4 = Cytochrome P450 3A4 (Homo sapiens, UniProt P08684); assay: Inhibition of human CYP3A4 using ketoconazole as […] relative to control; type: ADME
Sequence of Cytochrome P450 3A4 (P08684 whole entry): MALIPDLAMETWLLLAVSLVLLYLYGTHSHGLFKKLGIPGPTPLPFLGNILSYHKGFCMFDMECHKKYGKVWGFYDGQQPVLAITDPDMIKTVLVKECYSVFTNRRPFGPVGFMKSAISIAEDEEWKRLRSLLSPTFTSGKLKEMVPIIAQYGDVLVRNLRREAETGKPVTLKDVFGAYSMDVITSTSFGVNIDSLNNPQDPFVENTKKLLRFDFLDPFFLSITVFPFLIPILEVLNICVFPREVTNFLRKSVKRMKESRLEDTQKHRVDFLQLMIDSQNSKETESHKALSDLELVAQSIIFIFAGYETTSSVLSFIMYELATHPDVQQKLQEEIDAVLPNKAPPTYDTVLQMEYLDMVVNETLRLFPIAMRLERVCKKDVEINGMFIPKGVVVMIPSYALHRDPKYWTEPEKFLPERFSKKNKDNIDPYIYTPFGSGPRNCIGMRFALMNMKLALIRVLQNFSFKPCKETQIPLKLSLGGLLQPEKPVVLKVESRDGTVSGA

Cytochrome P450 1A2 = target: T1, Cytochrome P450 1A2 (Homo sapiens, UniProt P05177); assay: Inhibition of human CYP1A2 using alpha-naphthoflavone as […] relative to control; type: ADME
T1 sequence (P05177 whole entry): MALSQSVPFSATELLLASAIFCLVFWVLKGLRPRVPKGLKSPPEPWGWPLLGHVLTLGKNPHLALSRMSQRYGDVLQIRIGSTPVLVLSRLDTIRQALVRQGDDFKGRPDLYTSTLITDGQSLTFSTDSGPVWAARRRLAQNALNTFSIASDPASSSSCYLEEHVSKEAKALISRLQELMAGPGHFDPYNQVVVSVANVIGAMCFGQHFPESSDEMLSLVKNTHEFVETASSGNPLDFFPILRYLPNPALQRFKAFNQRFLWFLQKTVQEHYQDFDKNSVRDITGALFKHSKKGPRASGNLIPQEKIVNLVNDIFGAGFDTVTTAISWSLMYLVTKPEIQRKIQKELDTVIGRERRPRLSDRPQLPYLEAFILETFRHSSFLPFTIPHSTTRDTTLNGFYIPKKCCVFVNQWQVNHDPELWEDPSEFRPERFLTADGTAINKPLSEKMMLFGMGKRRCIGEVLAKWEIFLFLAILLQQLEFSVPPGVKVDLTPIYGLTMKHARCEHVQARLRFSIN

[10] = AUCinfinity in male mouse at 1 mg/kg, iv; type: ADME, organism-based; conditions: in vivo
[11] = Cytotoxicity against African green monkey Vero cells; type: toxicity, cell-based, Chlorocebus sabaeus
[12] = AUCt in male mouse at 1 mg/kg, iv; type: ADME, organism-based; conditions: in vivo
[13] = Volume of distribution at steady state in male mouse at 1 mg/kg, iv; type: ADME, organism-based; conditions: in vivo, read-out: Vdss
[14] = Metabolic stability in human liver microsomes assessed as compound remaining incubated for 30 mins; type: ADME, Microsome; conditions: read-out: Stability
[15] = Cytotoxicity against CHO-K1 cells; type: toxicity, cell-based, Cricetulus griseus; conditions: Chinese hamster
[16] = Half life in male mouse at 5 mg/kg, po; type: ADME, organism-based; conditions: in vivo
[17] = AUCt in male mouse at 5 mg/kg, po; type: ADME, organism-based; conditions: in vivo
Cytochrome P450 2D6 = Cytochrome P450 2D6 (Homo sapiens, UniProt P10635); assay: Inhibition of human CYP2D6 using quinidine as […] relative to control; type: ADME
Sequence of Cytochrome P450 2D6 (P10635 whole entry): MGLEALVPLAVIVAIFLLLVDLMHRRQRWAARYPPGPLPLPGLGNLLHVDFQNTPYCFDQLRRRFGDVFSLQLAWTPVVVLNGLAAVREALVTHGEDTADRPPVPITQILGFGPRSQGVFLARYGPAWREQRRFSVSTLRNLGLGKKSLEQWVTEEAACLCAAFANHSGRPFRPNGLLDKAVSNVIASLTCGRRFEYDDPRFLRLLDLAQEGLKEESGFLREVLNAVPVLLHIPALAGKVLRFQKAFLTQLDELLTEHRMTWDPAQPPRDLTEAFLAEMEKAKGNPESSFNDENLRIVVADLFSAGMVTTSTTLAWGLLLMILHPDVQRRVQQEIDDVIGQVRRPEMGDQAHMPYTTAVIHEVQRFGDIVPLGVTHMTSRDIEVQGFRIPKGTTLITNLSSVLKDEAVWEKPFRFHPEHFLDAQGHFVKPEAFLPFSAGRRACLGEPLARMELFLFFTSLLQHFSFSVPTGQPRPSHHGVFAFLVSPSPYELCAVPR

[18] = AUCinfinity in male mouse at 5 mg/kg, po; type: ADME, organism-based; conditions: in vivo
[19] = Cytotoxicity against mouse L929 cells; type: toxicity, cell-based
[20] = Cytotoxicity against human HFL1 cells; type: toxicity, cell-based
[21] = Cmax in male mouse at 5 mg/kg, po; type: ADME, organism-based; conditions: in vivo
[22] = Clearance in male mouse at 1 mg/kg, iv; type: ADME, organism-based; conditions: in vivo
Cytochrome P450 2C9 = Cytochrome P450 2C9 (Homo sapiens, UniProt P11712); assay: Inhibition of human CYP2C9 using sulfaphenazole as […] relative to control; type: ADME
Sequence of Cytochrome P450 2C9 (P11712 whole entry): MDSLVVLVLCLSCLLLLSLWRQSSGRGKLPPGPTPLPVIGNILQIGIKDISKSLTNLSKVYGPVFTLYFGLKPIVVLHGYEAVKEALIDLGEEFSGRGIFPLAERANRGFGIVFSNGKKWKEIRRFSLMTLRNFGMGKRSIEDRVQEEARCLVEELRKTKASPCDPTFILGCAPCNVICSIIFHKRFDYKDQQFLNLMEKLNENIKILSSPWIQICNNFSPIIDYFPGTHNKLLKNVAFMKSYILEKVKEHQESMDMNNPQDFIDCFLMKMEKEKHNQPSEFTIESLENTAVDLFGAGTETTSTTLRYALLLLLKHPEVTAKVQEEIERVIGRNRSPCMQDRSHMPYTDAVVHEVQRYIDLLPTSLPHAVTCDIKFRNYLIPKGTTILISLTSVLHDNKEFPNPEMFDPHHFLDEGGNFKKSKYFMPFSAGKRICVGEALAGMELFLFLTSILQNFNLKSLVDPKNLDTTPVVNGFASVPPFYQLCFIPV

Mus musculus [23] = assay: Restoration of motile cilia in porcine pancreatic elastase-induced COPD C57BL/6 mouse model assessed as increase in motile cilia in trachea at 2 mg/kg, ip administered every other day for 2 weeks and measured 24 hrs post last dose by DAPI staining based confocal microscopic analysis; type: functional, organism-based

Compound: CC(C)(C)Nc1ncc(-c2cccnc2)cc1-c1nc2ccccc2o1
- Activity (Danio rerio [1]): Active

Compound: CC(C)(C)Nc1ncc(-c2cn[nH]c2)cc1-c1nc2ccccc2o1
- Activity (Danio rerio [1]): Active

Compound: CC(CC(=O)O)n1cc(-c2cnc(NC(C)(C)C)c(-c3nc4ccccc4o3)c2)cn1 (configuration not stated)
- Activity (Danio rerio [2]): Active

Compound: CC(C)(C)Nc1ncc(-c2cnn(CCC(=O)O)c2)cc1-c1nc2ccccc2o1
- Activity (Danio rerio [2]): Active

Compound: CC(C)(C)Nc1ncc(-c2cccc(N)c2)cc1-c1nc2ccccc2o1
- Activity (Danio rerio [1]): Active

Compound: Nc1cccc(-c2cnc(N3CCCCC3)c(-c3nc4ccccc4o3)c2)c1
- Activity (Danio rerio [1]): Active

- remaining at 0.5 h [3]: > 99.9%
- remaining at 0.5 h [4]: > 99.9%
- inhibition (INH) (Cytochrome P450 2C19): 17.4%
- half-life [7]: 3.51 h
- Tmax [8]: 3.67 h
- bioavailability [9]: 85%
- inhibition (INH) (Cytochrome P450 3A4): < 1%
- inhibition (INH) (Cytochrome P450 1A2): 1.17%
- AUC(0-inf) [10]: 12600 ng·h/mL
- AUC(0-t) [12]: 12500 ng·h/mL
- Vd [13]: 0.4 L/kg
- remaining at 0.5 h [14]: > 99.9%
- half-life [16]: 3.55 h
- AUC(0-t) [17]: 53100 ng·h/mL
- inhibition (INH) (Cytochrome P450 2D6): < 1%
- AUC(0-inf) [18]: 62900 ng·h/mL
- Cmax [21]: 5160 ng/mL
- clearance [22]: 1.33 mL/min/kg
- inhibition (INH) (Cytochrome P450 2C9): 31.9%
Compound: CC(C)(C)Nc1ncc(-c2cnn(C(C)(C)CC(=O)O)c2)cc1-c1nc2ccccc2o1
- inhibition at 10 µM (hERG): < 1%
- Activity (Mus musculus [5]): Active
- IC50 [6]: > 100 µM
- Activity (mTEC): Active
- Activity (Danio rerio [1]): Active
- IC50 [11]: > 100 µM
- IC50 [15]: > 100 µM
- IC50 [19]: > 100 µM
- Activity (Danio rerio [2]): Active
- IC50 [20]: > 100 µM
- Activity (Mus musculus [23]): Active

Compound: CC(C)(C)Nc1ncc(-c2cnn(C(C)(C)CC(=O)O)c2)cc1-c1nc2ccccc2[nH]1
- Activity (Danio rerio [1]): Active

Compound: CCCCNc1ncc(-c2cccc(N)c2)cc1-c1nc2ccccc2o1
- Activity (Danio rerio [1]): Active

Compound: CNc1ncc(-c2cccc(N)c2)cc1-c1nc2ccccc2o1
- Activity (Danio rerio [1]): Active

Compound: CC(C)(C)Nc1ncc(-c2ccccc2)cc1-c1nc2ccccc2o1
- Activity (Danio rerio [1]): Active

Compound: Nc1cccc(-c2cnc(N3CCOCC3)c(-c3nc4ccccc4o3)c2)c1
- Activity (Danio rerio [1]): Active

Compound: CC(C)(C)Nc1ncc(-c2ccccn2)cc1-c1nc2ccccc2o1
- Activity (Danio rerio [1]): Active

Compound: CC(C)(C)Nc1ncc(-c2ccoc2)cc1-c1nc2ccccc2o1
- Activity (Danio rerio [1]): Active

Compound: Nc1cccc(-c2cnc(N3CCNCC3)c(-c3nc4ccccc4o3)c2)c1
- Activity (Danio rerio [1]): Active

Compound: CN1CCN(c2ncc(-c3cccc(N)c3)cc2-c2nc3ccccc3o2)CC1
- Activity (Danio rerio [1]): Active

Compound: Nc1cccc(-c2cnc(N)c(-c3nc4ccccc4o3)c2)c1
- Activity (Danio rerio [1]): inactive

Compound: CC(C)(C)Nc1ncc(-c2ccsc2)cc1-c1nc2ccccc2o1
- Activity (Danio rerio [1]): Active
